Test results taken from PubChem BioAssay (NCI).
Several values for one entry are separate records, joined by “and”; a condition that tells them apart may be missing. Equal entries are not always repeated.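 A five-concentration, 48-hour dose response in 96-well plates underlies each endpoint, interpolated linearly between surrounding concentrations. The concentration for 50% growth inhibition is given as GI50. TGI denotes the concentration required for complete inhibition of growth.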

Key:
Test in all cases: growth of human tumour cells (NCI), 48 h
OVCAR-3 ovarian = system: OVCAR-3 ovarian
SK-OV-3 ovarian = system: SK-OV-3 ovarian
SK-MEL-28 melanoma = system: SK-MEL-28 melanoma
MOLT-4 leukemia = system: MOLT-4 leukemia
UACC-62 melanoma = system: UACC-62 melanoma
SNB-75 CNS = system: SNB-75 CNS
OVCAR-4 ovarian = system: OVCAR-4 ovarian
NCI-H226 lung = system: NCI-H226 lung
KM12 colon = system: KM12 colon
HCT-15 colon = system: HCT-15 colon
NCI-H460 lung = system: NCI-H460 lung
HL-60(TB) leukemia = system: HL-60(TB) leukemia
M14 melanoma = system: M14 melanoma
HOP-92 NSCLC = system: HOP-92 NSCLC
HCT-116 colon = system: HCT-116 colon
HS 578T breast = system: HS 578T breast
A549 NSCLC = system: A549 NSCLC
A498 renal = system: A498 renal
MCF7 breast = system: MCF7 breast
HOP-62 NSCLC = system: HOP-62 NSCLC
NCI/ADR-RES ovarian = system: NCI/ADR-RES ovarian
SK-MEL-5 melanoma = system: SK-MEL-5 melanoma
SR leukemia = system: SR leukemia
PC-3 prostate = system: PC-3 prostate
CCRF-CEM leukemia = system: CCRF-CEM leukemia
SF-268 CNS = system: SF-268 CNS
UACC-257 melanoma = system: UACC-257 melanoma
T-47D breast = system: T-47D breast
RPMI-8226 leukemia = system: RPMI-8226 leukemia
SF-295 CNS = system: SF-295 CNS
MDA-MB-231 breast = system: MDA-MB-231 breast
SW-620 colon = system: SW-620 colon
LOX IMVI melanoma = system: LOX IMVI melanoma
BT-549 breast = system: BT-549 breast
HCC-2998 colon = system: HCC-2998 colon
SNB-19 CNS = system: SNB-19 CNS
UO-31 renal = system: UO-31 renal
OVCAR-8 ovarian = system: OVCAR-8 ovarian
786-0 renal = system: 786-0 renal
OVCAR-5 ovarian = system: OVCAR-5 ovarian
MALME-3M melanoma = system: MALME-3M melanoma
SN12C renal = system: SN12C renal
COLO 205 colon = system: COLO 205 colon
HT29 colon = system: HT29 colon
NCI-H522 lung = system: NCI-H522 lung
NCI-H23 lung = system: NCI-H23 lung
U251 CNS = system: U251 CNS
DU-145 prostate = system: DU-145 prostate
CAKI-1 renal = system: CAKI-1 renal
EKVX NSCLC = system: EKVX NSCLC
SK-MEL-2 melanoma = system: SK-MEL-2 melanoma
IGROV1 ovarian = system: IGROV1 ovarian
MDA-N = system: MDA-N
RXF 393 renal = system: RXF 393 renal
K-562 leukemia = system: K-562 leukemia
MDA-MB-435 = system: MDA-MB-435

CC1OC(OC2C(OC(=O)[C@]34CCC(C)(C)C[C@H]3C3=CC[C@@H]5[C@@]6(C)CC[C@H](OC7OC(C(=O)O)C(O)C(O)C7O)C(C)(C)[C@@H]6CC[C@@]5(C)[C@]3(C)CC4)OCC(O)C2O)C(O)C(O)C1OC1OCC(O)C(O)C1O (stereo partly specified)
TGI (OVCAR-3 ovarian): > 100 µM | TGI (SK-OV-3 ovarian): > 100 µM | TGI (SK-MEL-28 melanoma): 34.4 µM and 58.9 µM | GI50 (MOLT-4 leukemia): > 100 µM and 36.9 µM | TGI (MOLT-4 leukemia): > 100 µM | TGI (UACC-62 melanoma): 86.5 µM and > 100 µM | GI50 (SNB-75 CNS): 80.6 µM and 24.7 µM | TGI (SNB-75 CNS): > 100 µM and 76.8 µM | TGI (OVCAR-4 ovarian): > 100 µM | TGI (NCI-H226 lung): > 100 µM | GI50 (KM12 colon): 37.9 µM and 17.1 µM | TGI (KM12 colon): > 100 µM and 34 µM | TGI (HCT-15 colon): > 100 µM | TGI (NCI-H460 lung): > 100 µM | TGI (HL-60(TB) leukemia): 73.5 µM and 45.8 µM | TGI (M14 melanoma): 56 µM and 35.6 µM | TGI (HOP-92 NSCLC): 99.8 µM and 43.7 µM | TGI (HCT-116 colon): > 100 µM | GI50 (HS 578T breast): > 100 µM and 45.5 µM | TGI (HS 578T breast): > 100 µM | TGI (A549 NSCLC): > 100 µM | TGI (A498 renal): 33.2 µM and 35.7 µM | TGI (MCF7 breast): > 100 µM | GI50 (HOP-62 NSCLC): > 100 µM and 25.5 µM | TGI (HOP-62 NSCLC): > 100 µM and 55.6 µM | TGI (NCI/ADR-RES ovarian): > 100 µM | GI50 (SK-MEL-5 melanoma): > 100 µM and 28.3 µM | TGI (SK-MEL-5 melanoma): > 100 µM | GI50 (SR leukemia): 46.2 µM and 22.5 µM | TGI (SR leukemia): > 100 µM and 77.1 µM | GI50 (PC-3 prostate): 66.9 µM and 25.2 µM | TGI (PC-3 prostate): > 100 µM and 74.7 µM | TGI (CCRF-CEM leukemia): > 100 µM | TGI (SF-268 CNS): > 100 µM | TGI (UACC-257 melanoma): 93.1 µM and > 100 µM | TGI (T-47D breast): > 100 µM | GI50 (RPMI-8226 leukemia): 54.5 µM and 25.6 µM | TGI (RPMI-8226 leukemia): > 100 µM and 71.5 µM | GI50 (SF-295 CNS): 53.5 µM and 24 µM | TGI (SF-295 CNS): > 100 µM and 58.6 µM | TGI (MDA-MB-231 breast): 60.4 µM and 35.4 µM | GI50 (SW-620 colon): 98 µM and 45.1 µM | TGI (SW-620 colon): > 100 µM | TGI (LOX IMVI melanoma): > 100 µM | GI50 (BT-549 breast): 40 µM and 18.4 µM | TGI (BT-549 breast): > 100 µM and 37.3 µM | TGI (HCC-2998 colon): 33.6 µM and 34 µM | GI50 (SNB-19 CNS): > 100 µM and 47.5 µM | TGI (SNB-19 CNS): > 100 µM | TGI (UO-31 renal): 39.1 µM and 34.8 µM | TGI (OVCAR-8 ovarian): > 100 µM | TGI (786-0 renal): > 100 µM | TGI (OVCAR-5 ovarian): > 100 µM | TGI (MALME-3M melanoma): > 100 µM | TGI (SN12C renal): 50.5 µM and 40.5 µM | TGI (COLO 205 colon): 31.2 µM and 30.6 µM | TGI (HT29 colon): > 100 µM and 30.1 µM | TGI (NCI-H522 lung): > 100 µM | TGI (NCI-H23 lung): 42.5 µM and 38.3 µM | TGI (U251 CNS): > 100 µM | GI50 (DU-145 prostate): > 100 µM and 45.9 µM | TGI (DU-145 prostate): > 100 µM | TGI (CAKI-1 renal): > 100 µM | TGI (EKVX NSCLC): 79.3 µM and 48.4 µM | TGI (SK-MEL-2 melanoma): > 100 µM and 63.7 µM | TGI (IGROV1 ovarian): > 100 µM | TGI (MDA-N): 37.8 µM and 36.2 µM | TGI (RXF 393 renal): > 100 µM | GI50 (K-562 leukemia): 58.7 µM and 28 µM | TGI (K-562 leukemia): > 100 µM and 76.9 µM | TGI (MDA-MB-435): 34.8 µM
